Laboratory results from PubChem BioAssay (NCI).
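These data come from cells grown in 96-well plates and exposed to compound for 48 hours at five concentrations. TGI: total growth inhibition.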

Key:
Test in all cases: growth of human tumour cells (NCI), 48 h
IGROV1 ovarian = system: IGROV1 ovarian
MDA-N = system: MDA-N
SW-620 colon = system: SW-620 colon
HCC-2998 colon = system: HCC-2998 colon
MDA-MB-435 = system: MDA-MB-435
A498 renal = system: A498 renal
MOLT-4 leukemia = system: MOLT-4 leukemia
M14 melanoma = system: M14 melanoma
NCI-H460 lung = system: NCI-H460 lung
SN12C renal = system: SN12C renal
SF-268 CNS = system: SF-268 CNS
HOP-92 NSCLC = system: HOP-92 NSCLC
T-47D breast = system: T-47D breast
HCT-15 colon = system: HCT-15 colon
COLO 205 colon = system: COLO 205 colon
RPMI-8226 leukemia = system: RPMI-8226 leukemia

Row | Structure (SMILES) | TGI (IGROV1 ovarian) | TGI (MDA-N) | TGI (SW-620 colon) | TGI (HCC-2998 colon) | TGI (MDA-MB-435) | TGI (A498 renal) | TGI (MOLT-4 leukemia) | TGI (M14 melanoma) | TGI (NCI-H460 lung) | TGI (SN12C renal) | TGI (SF-268 CNS) | TGI (HOP-92 NSCLC) | TGI (T-47D breast) | TGI (HCT-15 colon) | TGI (COLO 205 colon) | TGI (RPMI-8226 leukemia)
1 | CN1CCCOC(c2ccc([N+](=O)[O-])cc2)O1 (stereo unspecified) | > 100 µM | > 100 µM | > 100 µM | > 100 µM | > 100 µM | > 100 µM | > 100 µM | > 100 µM | > 100 µM | > 100 µM | > 100 µM | > 100 µM | > 100 µM | > 100 µM | > 100 µM | –
2 | Cc1ccc(C2SC(N)=Nc3c2c(C)nn3C(=O)c2ccccc2O)cc1 (stereo unspecified) | > 10 µM | > 10 µM | > 10 µM | – | > 10 µM | > 10 µM | > 10 µM | > 10 µM | > 10 µM | > 10 µM | > 10 µM | 5.02 µM | > 10 µM | > 10 µM | > 10 µM | > 10 µM
3 | CN(C(=O)C1CCCCCC1=O)c1ccccc1Cl (stereo unspecified) | > 100 µM | – | > 100 µM | – | > 100 µM | > 100 µM | > 100 µM | > 100 µM | > 100 µM | > 100 µM | > 100 µM | > 100 µM | > 100 µM | > 100 µM | > 100 µM | > 100 µM
4 | CCCCCCCCCCCCCCCCOCC(CP(=O)([O-])OCC[n+]1ccccc1)OC (stereo unspecified) | 17.6 µM | – | 31.6 µM | 7.4 µM | – | 25.5 µM | 18.9 µM | 17.9 µM | – | 24.9 µM | 24.9 µM | 5.97 µM | – | – | 20.5 µM | 11.8 µM
5 | CC(C)(C)OC(=O)N1CCC2(C)CC(=O)CC=C12 (stereo unspecified) | > 100 µM | > 100 µM | > 100 µM | > 100 µM | > 100 µM | – | > 100 µM | > 100 µM | > 100 µM | > 100 µM | > 100 µM | > 100 µM | > 100 µM | > 100 µM | > 100 µM | –
6 | Cc1ccc(C2=C(C#N)C(=O)N3CCN=C3S2)cc1 | > 100 µM | > 100 µM | > 100 µM | > 100 µM | > 100 µM | – | > 100 µM | > 100 µM | > 100 µM | > 100 µM | – | > 100 µM | > 100 µM | > 100 µM | > 100 µM | –
7 | C[C@]12C[C@@H](c3ccccc3)Nc3ccccc3N1C(c1ccccc1)=NO2 | > 100 µM | 68.7 µM | > 100 µM | > 100 µM | 58.5 µM | > 100 µM | 43.5 µM | 93.3 µM | > 100 µM | > 100 µM | > 100 µM | 58.4 µM | – | > 100 µM | 34.7 µM | 49.3 µM
8 | CC(=O)C(CN(Cc1ccccc1)Cc1ccccc1)C(c1ccccc1)c1c(O)c2ccccc2oc1=O (stereo unspecified) | > 100 µM | – | > 100 µM | – | – | > 100 µM | – | > 100 µM | > 100 µM | > 100 µM | > 100 µM | > 100 µM | – | > 100 µM | – | > 100 µM
9 | COC(=O)C1(C(=O)OC)Cc2ccc(C)cc2C2=C1C(=O)c1ccccc1C2=O | 44.3 µM | 32 µM | 45.8 µM | – | 31.4 µM | – | 31.7 µM | – | > 100 µM | 48.1 µM | 48.9 µM | 38.7 µM | 29.9 µM | 30.1 µM | – | –
10 | CC(O)c1ccc[n+](Cc2ccccc2)c1 (stereo unspecified) | > 400 µM | – | > 400 µM | > 400 µM | – | – | > 400 µM | – | > 400 µM | > 400 µM | > 400 µM | > 400 µM | – | > 400 µM | > 400 µM | > 400 µM
11 | CC(C)C(Sc1nc(-c2ccccc2)c(-c2ccccc2)[nH]1)C(=O)NN (stereo unspecified) | > 100 µM | – | > 100 µM | – | – | > 100 µM | > 100 µM | > 100 µM | > 100 µM | > 100 µM | > 100 µM | > 100 µM | – | > 100 µM | > 100 µM | > 100 µM
12 | Oc1cc(-c2ccc(Cl)cc2)cn2c1nc1ccccc12 | > 100 µM | > 100 µM | > 100 µM | – | > 100 µM | > 100 µM | – | > 100 µM | > 100 µM | > 100 µM | > 100 µM | > 100 µM | > 100 µM | > 100 µM | > 100 µM | –
13 | Nc1ncnc2c1ncn2C1OC(CO)C(O)C(O)C1O (stereo unspecified) | > 100 µM | > 100 µM | > 100 µM | > 100 µM | > 100 µM | > 100 µM | > 100 µM | > 100 µM | > 100 µM | > 100 µM | > 100 µM | > 100 µM | – | > 100 µM | > 100 µM | > 100 µM
14 | CN(C)CC1CCCC(CN(C)C)C1=NOC(=O)c1ccccc1 (stereo unspecified) | > 100 µM | – | > 100 µM | > 100 µM | – | > 100 µM | > 100 µM | > 100 µM | > 100 µM | > 100 µM | > 100 µM | > 100 µM | – | > 100 µM | > 100 µM | > 100 µM
15 | COc1ccc(N2C(=O)C3c4[nH]c5ccccc5c4C4CC(C)CC(C)C4C3C2=O)cc1 (stereo unspecified) | > 100 µM | – | > 100 µM | > 100 µM | – | > 100 µM | > 100 µM | > 100 µM | – | > 100 µM | > 100 µM | > 100 µM | – | > 100 µM | > 100 µM | > 100 µM
16 | CSc1sc(=S)sc1C(=O)N(C)c1ccccc1 | > 100 µM | – | > 100 µM | – | – | – | > 100 µM | > 100 µM | > 100 µM | > 100 µM | > 100 µM | – | – | > 100 µM | > 100 µM | > 100 µM
17 | NC(CCC(=O)NC(CSC(=O)N(O)c1ccccc1)C(=O)NCC(=O)O)C(=O)O (stereo unspecified) | > 1000 µM | – | > 1000 µM | > 1000 µM | – | > 1000 µM | > 1000 µM | > 1000 µM | > 1000 µM | > 1000 µM | > 1000 µM | > 1000 µM | – | > 1000 µM | > 1000 µM | –
